Source: ChEMBL document CHEMBL1201862, “PubChem BioAssay data set” (2004)
The source made the active and inactive calls.

How the values were obtained:
Vero [1] = assay: cells; type: functional, cell-based; settings: Chlorocebus sabaeus
Vero [2] = assay: cells; type: functional; settings: Chlorocebus sabaeus
HEK293 [3] = assay: cells; type: functional, cell-based; settings: Homo sapiens
HEK293 [4] = assay: cells; type: functional, cell-based; settings: Homo sapiens; remark: listed apart in the source
[5] = target: Nucleotide-binding oligomerization domain-containing protein 2 (Homo sapiens, UniProt Q9HC29); assay: inhibition of NOD2-driven NF-kB reporter – cell-based, luminescence, uHTS, HEK293 (AID 1566); type: functional
HEK293 [6] = assay: cells; type: functional, cell-based; settings: Homo sapiens; remark: listed apart in the source
HEK293 [7] = assay: inhibition of NOD1-driven NF-kB reporter – cell-based, luminescence, uHTS, primary screen (AID 1578); type: functional; settings: Homo sapiens
HEK293 [8] = assay: NOD2 signaling inhibitors in MDP-stimulated cells, cell-based, uHTS, luminescence (AID 2001); type: functional; settings: Homo sapiens
H4 = assay: Luminescence Cell-Based Dose Response HTS to Identify Activators of 5'UTR Stem-Loop Driven Prion Protein mRNA Translation in H4 Neuroglioblastoma Cells. [Related pubchem assays: 1829 (Project Summary), 1814 (Primary HTS)]; type: functional; settings: Homo sapiens
Cytochrome P450 2C9 = Cytochrome P450 2C9 (Homo sapiens, UniProt P11712)
Cytochrome P450 3A4 = Cytochrome P450 3A4 (Homo sapiens, UniProt P08684);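 note: CYP3A4 tested as one member of a cytochrome P450 panel screen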
Protein skinhead-1 = target: T1, Protein skinhead-1 (Caenorhabditis elegans, UniProt P34707); type: functional
T1 sequence (P34707 whole entry): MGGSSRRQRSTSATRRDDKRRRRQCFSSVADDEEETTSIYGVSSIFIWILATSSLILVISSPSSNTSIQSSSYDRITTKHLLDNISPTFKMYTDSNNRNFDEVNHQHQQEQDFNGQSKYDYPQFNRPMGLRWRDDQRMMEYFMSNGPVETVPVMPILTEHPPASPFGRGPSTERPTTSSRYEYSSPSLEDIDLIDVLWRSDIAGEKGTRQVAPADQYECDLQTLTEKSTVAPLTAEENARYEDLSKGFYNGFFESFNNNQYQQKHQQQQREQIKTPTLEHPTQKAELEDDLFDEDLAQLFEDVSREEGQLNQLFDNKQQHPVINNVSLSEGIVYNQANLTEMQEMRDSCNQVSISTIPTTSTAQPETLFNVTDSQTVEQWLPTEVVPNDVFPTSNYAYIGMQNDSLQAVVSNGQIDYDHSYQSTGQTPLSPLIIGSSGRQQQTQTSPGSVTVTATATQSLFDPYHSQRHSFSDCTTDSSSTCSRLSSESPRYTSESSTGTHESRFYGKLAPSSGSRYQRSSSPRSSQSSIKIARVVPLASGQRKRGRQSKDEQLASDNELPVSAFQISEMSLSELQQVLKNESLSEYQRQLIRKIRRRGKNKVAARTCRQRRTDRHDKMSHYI

INS1 = assay: INS-1E survival protection against cytokine death – cell-based, luminescence, retest, dose response (AID 449756); type: functional; settings: Rattus norvegicus;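 note: cell death triggered by IL-1 beta plus TNF-alpha plus IFN-gamma mixture; protective hits raise ATP signal compared with cytokine alone wells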
[9] = Luminescence Cell-Based Dose Response HTS to Identify Inhibitors of 5'UTR Stem-Loop Driven Prion Protein mRNA Translation in H4 Neuroglioblastoma Cells. [Related pubchem assays: 1827 (Project Summary), 1813 (Primary HTS)]; type: functional
[10] = alpha-synuclein stem-loop luciferase translation blockers – H4 neuroglioma cells, luminescence, confirmation (AID 1988); type: functional, cell-based
[11] = HEK-293T viability loss after treatment – luminescence, T-cell screen hits, cytotoxicity control for TCR NF-kB inhibitor project, dose response (AID 489026); type: functional, cell-based;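 note: cells exposed to compound about 14 hours before the viability readout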
[12] = luciferase reporter signal suppression in cells – H4 neuroglioma cells, luminescence, dose response (AID 1990); type: functional, cell-based
[13] = target: T2, Voltage-gated N-type calcium channel alpha-1B subunit/Amyloid beta A4 precursor protein-binding family A member 1 (Homo sapiens, UniProt Q00975+Q02410); type: protein assay
[14] = target: T2, Voltage-gated N-type calcium channel alpha-1B subunit/Amyloid beta A4 precursor protein-binding family A member 1; type: protein assay; remark: listed apart in the source
Paired box protein Pax-8 = Paired box protein Pax-8 (Homo sapiens, UniProt Q06710); assay: PAX8 transcriptional activity inhibition in RMG-I – RMG-I cells, luciferase, cherry-pick, dose response (AID 687027); type: functional, cell-based;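 note: luciferase reporter driven by Pax8 target thyroperoxidase promoter measured by SteadyGlo luminescence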
[15] = target: T3, Heat shock factor protein 1 (Mus musculus, UniProt P38532); assay: enhancement of HSF1-driven luciferase signal – cell-based, NIH3T3, luminescence, dose retest, confirmation (AID 435004); type: functional;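 note: stress induced by proteasome inhibitor MG132 added 30 min after compound; luciferase reporter driven by HSF1 response element in NIH3T3 cells; actives raise luminescence as potentiators of the MG132 stress response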
T3 sequence (P38532 whole entry): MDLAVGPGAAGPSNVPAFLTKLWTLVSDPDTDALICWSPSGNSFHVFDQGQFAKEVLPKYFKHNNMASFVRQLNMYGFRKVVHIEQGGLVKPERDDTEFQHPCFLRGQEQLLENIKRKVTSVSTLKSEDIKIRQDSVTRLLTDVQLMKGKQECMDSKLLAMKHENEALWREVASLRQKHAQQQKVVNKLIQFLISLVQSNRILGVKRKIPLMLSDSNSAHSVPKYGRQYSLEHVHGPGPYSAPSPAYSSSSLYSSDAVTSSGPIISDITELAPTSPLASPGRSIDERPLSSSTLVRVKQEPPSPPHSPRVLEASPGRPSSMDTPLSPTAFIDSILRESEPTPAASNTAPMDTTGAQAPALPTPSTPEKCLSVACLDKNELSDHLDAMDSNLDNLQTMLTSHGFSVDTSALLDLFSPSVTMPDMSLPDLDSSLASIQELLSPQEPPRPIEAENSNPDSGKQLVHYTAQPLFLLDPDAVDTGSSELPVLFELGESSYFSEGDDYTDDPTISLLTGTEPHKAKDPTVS

[16] = general cell-killing toxicity readout – plate reader, dry powder samples, cytotoxicity control for PAX8 inhibitor project, dose response (AID 743021); type: functional, cell-based
Genome polyprotein = Genome polyprotein (dengue virus type 2, UniProt P29990); assay: flavivirus cap methylation enzyme inhibition – biochemical, confirmation dose response, primary screen (AID 588689); type: functional
[17] = target: T4, Rac GTPase-activating protein 1 (Homo sapiens, UniProt Q9H0H5); assay: blockers of MgcRacGAP-driven Rac1 GTP hydrolysis – biochemical, ADP Hunter fluorescence, primary and confirmatory, confirmation (AID 624330); type: functional
T4 sequence (Q9H0H5 whole entry): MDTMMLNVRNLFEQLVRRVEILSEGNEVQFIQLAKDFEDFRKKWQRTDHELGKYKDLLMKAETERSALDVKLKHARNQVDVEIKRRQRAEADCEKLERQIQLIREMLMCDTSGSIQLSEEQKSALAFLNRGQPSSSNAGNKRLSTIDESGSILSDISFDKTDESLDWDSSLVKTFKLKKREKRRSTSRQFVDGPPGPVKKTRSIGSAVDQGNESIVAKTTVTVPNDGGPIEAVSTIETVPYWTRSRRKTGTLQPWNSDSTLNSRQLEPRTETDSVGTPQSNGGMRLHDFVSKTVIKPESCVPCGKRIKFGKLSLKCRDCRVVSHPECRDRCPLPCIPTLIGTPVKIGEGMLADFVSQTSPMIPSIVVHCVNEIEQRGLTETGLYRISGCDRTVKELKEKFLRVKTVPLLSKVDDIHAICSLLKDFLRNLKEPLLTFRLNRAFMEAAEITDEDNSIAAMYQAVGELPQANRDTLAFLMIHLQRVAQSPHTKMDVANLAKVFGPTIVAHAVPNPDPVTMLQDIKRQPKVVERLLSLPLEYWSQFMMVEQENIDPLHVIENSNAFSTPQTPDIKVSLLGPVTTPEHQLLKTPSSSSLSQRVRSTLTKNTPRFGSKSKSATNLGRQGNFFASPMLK

T2 sequence (Q00975 whole entry): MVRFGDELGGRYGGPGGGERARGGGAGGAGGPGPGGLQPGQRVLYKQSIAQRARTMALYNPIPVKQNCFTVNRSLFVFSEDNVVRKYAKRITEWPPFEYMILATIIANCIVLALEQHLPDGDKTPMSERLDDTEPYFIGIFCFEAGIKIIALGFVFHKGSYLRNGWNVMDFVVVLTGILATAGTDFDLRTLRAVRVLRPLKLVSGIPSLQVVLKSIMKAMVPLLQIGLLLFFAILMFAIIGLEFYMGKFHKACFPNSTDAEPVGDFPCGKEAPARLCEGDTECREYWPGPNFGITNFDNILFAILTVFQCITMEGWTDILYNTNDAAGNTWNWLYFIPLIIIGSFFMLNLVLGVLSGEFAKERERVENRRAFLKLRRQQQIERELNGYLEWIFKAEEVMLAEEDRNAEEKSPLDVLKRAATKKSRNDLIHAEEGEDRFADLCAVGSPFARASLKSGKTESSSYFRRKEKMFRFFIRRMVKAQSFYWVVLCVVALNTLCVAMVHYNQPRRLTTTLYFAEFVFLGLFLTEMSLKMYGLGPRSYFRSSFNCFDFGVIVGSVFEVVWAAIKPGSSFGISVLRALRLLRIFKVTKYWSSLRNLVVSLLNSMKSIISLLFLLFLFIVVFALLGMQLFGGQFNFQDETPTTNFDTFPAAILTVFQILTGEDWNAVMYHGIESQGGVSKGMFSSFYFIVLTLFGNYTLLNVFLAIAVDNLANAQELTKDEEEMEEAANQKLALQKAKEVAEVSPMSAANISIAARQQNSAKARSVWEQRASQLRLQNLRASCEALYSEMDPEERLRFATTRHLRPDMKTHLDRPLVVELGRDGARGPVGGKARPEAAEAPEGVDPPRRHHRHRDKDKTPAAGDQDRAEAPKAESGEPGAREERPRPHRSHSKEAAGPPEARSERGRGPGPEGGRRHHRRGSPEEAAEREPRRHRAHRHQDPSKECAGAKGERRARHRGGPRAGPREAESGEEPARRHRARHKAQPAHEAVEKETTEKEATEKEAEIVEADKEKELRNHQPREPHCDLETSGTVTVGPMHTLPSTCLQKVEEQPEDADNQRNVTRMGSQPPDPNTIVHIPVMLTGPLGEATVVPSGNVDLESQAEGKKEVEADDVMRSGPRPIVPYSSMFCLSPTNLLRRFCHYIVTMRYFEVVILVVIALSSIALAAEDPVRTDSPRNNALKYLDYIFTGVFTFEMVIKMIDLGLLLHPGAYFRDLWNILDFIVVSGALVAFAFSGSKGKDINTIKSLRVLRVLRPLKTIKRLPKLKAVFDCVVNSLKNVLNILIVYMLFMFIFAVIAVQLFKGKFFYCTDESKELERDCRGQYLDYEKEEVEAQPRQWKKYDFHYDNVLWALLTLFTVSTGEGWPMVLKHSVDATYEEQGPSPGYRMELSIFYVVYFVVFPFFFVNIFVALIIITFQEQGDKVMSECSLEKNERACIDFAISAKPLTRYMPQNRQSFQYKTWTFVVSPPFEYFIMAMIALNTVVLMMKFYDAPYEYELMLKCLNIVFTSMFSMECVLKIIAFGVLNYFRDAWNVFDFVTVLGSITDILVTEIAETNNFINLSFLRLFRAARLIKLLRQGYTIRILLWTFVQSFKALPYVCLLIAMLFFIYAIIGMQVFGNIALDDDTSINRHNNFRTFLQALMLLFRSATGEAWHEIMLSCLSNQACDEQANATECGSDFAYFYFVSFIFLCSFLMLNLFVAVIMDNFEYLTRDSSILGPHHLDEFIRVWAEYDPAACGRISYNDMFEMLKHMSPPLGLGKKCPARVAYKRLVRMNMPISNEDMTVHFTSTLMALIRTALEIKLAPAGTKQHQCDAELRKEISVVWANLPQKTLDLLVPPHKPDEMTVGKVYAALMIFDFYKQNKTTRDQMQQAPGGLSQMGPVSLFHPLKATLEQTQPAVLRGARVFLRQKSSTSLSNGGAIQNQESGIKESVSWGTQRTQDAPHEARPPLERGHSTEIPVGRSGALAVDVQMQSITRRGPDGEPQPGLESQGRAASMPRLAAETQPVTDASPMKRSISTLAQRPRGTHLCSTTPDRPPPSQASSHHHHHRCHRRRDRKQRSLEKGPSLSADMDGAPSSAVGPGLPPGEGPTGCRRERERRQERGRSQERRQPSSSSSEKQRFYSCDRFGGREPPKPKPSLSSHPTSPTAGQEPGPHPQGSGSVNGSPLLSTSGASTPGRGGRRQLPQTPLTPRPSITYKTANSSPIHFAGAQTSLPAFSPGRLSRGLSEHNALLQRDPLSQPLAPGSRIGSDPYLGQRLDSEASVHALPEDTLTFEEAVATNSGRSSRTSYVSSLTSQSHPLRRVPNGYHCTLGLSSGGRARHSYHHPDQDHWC
T2 sequence (Q02410 whole entry): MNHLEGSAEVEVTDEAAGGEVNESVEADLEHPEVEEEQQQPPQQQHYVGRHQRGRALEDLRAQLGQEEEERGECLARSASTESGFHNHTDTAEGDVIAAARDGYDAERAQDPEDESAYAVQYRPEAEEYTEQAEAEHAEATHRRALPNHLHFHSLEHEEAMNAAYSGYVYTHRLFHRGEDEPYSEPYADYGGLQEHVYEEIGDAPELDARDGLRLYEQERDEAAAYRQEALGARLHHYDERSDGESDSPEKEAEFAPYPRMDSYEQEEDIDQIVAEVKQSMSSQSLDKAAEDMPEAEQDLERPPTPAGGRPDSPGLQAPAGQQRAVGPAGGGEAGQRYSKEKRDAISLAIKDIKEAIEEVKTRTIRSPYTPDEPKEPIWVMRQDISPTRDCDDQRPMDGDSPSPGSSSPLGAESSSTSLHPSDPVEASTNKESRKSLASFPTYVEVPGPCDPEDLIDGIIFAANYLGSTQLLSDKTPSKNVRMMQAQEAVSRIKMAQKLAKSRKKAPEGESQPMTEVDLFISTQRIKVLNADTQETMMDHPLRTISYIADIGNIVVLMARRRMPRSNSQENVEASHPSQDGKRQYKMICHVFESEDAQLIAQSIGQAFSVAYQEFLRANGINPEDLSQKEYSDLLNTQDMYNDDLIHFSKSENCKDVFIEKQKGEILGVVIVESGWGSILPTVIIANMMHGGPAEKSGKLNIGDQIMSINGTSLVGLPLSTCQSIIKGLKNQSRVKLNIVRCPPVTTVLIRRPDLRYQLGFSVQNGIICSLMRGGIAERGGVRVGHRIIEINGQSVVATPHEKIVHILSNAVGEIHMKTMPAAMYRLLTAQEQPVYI
Chain of Cytochrome P450 3A4 (P08684 whole entry): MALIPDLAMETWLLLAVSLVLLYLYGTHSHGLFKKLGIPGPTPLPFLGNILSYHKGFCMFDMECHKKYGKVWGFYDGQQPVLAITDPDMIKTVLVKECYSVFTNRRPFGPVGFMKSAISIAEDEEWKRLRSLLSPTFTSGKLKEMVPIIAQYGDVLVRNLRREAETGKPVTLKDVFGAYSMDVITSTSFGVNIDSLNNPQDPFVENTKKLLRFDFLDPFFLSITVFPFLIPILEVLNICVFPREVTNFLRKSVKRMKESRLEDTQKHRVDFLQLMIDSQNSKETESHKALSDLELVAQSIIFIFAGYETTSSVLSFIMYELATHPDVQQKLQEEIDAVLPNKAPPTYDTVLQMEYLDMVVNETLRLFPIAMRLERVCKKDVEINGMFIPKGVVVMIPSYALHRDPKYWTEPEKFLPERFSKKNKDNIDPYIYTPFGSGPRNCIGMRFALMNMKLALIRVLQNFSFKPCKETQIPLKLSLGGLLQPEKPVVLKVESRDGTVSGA
Chain of Paired box protein Pax-8 (Q06710 whole entry): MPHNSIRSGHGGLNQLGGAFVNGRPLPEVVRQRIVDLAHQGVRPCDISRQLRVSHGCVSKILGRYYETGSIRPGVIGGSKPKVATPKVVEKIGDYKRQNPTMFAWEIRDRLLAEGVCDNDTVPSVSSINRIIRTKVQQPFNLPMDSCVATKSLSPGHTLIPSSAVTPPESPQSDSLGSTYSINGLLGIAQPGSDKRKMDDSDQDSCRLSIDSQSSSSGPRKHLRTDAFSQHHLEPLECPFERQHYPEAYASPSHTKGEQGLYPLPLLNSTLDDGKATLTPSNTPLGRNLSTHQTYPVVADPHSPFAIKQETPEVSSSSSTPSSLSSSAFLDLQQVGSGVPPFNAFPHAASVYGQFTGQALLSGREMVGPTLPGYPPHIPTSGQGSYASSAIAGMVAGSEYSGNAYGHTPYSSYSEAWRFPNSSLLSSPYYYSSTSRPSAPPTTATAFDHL
Chain of Cytochrome P450 2C9 (P11712 whole entry): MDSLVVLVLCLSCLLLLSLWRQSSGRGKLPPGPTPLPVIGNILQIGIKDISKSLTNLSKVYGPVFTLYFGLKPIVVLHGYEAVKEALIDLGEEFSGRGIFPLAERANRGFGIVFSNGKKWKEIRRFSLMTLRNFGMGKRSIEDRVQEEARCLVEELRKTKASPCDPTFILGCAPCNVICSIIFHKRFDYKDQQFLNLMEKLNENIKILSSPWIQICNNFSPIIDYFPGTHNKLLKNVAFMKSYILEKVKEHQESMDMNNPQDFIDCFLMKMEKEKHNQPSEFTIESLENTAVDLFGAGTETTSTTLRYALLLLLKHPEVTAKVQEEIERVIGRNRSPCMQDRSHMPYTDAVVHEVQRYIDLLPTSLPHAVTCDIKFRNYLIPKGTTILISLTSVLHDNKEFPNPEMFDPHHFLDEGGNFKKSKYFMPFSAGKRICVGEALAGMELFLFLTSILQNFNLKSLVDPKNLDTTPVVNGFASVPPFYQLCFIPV

Compound: Cc1ccc(/C=C/C(=O)c2c(C)nc3ccccn23)cc1
- IC50 (Vero [1]): > 25 µM (active)
- CC50 (Vero [2]): 17.6 µM (active)

Compound: COc1ccc(C)cc1NC(=O)c1sc2ncnc(N3CCN(c4ccccn4)CC3)c2c1C
- IC50 (HEK293 [3]): > 20 µM (inactive)
- IC50 (HEK293 [4]): > 20 µM (inactive)
- EC50 [5]: > 20 µM (inactive)
- IC50 (HEK293 [6]): > 20 µM (inactive)
- EC50 (HEK293 [7]): > 20 µM (inactive)
- IC50 (HEK293 [8]): > 20 µM (inactive)

Compound: Cc1ccccc1C(=O)Nc1ccc2c(c1)CCCN2C(=O)c1cccs1
- IC50 (Vero [1]): 7.77 µM (active)
- CC50 (Vero [2]): > 25 µM (active)

Compound: O=[N+]([O-])c1ccc2nc(-c3ccc(Cl)cc3)n(OCc3ccccc3)c2c1
- EC50 (H4): 0.973 µM (active)
- AC50 (Cytochrome P450 2C9): 22.4 µM (inconclusive)
- AC50 (Cytochrome P450 3A4): inconclusive
- IC50 (Protein skinhead-1): > 100 µM (inactive)

Compound: Cc1ccc2nc(C)c(CN3CCN(c4ccc([N+](=O)[O-])cc4Cl)CC3)n2c1
- AC50 (INS1): 1.79 µM (active)
- EC50 [9]: 17.1 µM (active)
- EC50 [10]: > 120 µM (not active)
- IC50 [11]: > 80 µM (inactive)
- EC50 [12]: > 120 µM (not active)

Compound: COC(=O)N1CCC2(CC1)CCN(c1cccc(-c3ccccc3)c1)CC2
- AC50 (Cytochrome P450 3A4): inconclusive

Compound: COc1ccc(N2C(=O)CC(Sc3nnnn3-c3ccc(F)cc3)C2=O)cc1 (centres undefined)
- IC50 [13]: 11 µM (active)
- IC50 [14]: 3.95 µM (active)
- AC50 (Paired box protein Pax-8): 13.6 µM (active)
- EC50 [15]: 17.1 µM (active)
- AC50 [16]: 26.6 µM (active)

Compound: NNc1cc([N+](=O)[O-])cc2c1c(=O)n(Cc1ccccc1)[s+]2[O-] (centres undefined)
- IC50 [13]: 10.3 µM (active)
- IC50 [14]: > 50 µM (inactive)
- IC50 (Genome polyprotein): 63.4 µM (active)
- IC50 [17]: 52.3 µM (active)
